Measurements as given in article PMC8878317, “Chemogenomics identifies acetyl-coenzyme A synthetase as a target for malaria treatment and prevention” (Cell Chemical Biology, 2022).

Test system: P. falciparum 3D7 parasites
Assay: Metabolomic profiling of compound-treated parasites (LC/MS);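 as to Metabolite data: 3-Phosphoglycerate: Log2 fold change in abundance versus untreated parasite controls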;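 as to Metabolite data: Myo-Inositol: Log2 fold change in abundance versus untreated parasite controls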;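 as to Metabolite data: N-Carbamoyl-L-Aspartate: Log2 fold change in abundance versus untreated parasite controls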;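 as to Metabolite data: Nicotinate: Log2 fold change in abundance versus untreated parasite controls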
Assay type: cell-based
Parameters: Metabolite data: dTMP / Metabolite data: GMP / Metabolite data: S-Adenosyl-L-Homocysteine / Metabolite data: 1_3-Bisphosphoglyceric acid: scale not given here
In short: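 Magnetically purified trophozoites (1×10^8 parasites/mL) recovered 1 h in RPMI 1640, incubated a further 2.5 h, quenched in 90% methanol with labeled aspartate. Extracts analysed by reverse-phase C18 LC with negative-mode Orbitrap MS; peak areas normalized to internal standards, blank-subtracted and averaged by condition.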

Compound: N#Cc1cc(NC(=O)[C@H]2c3ccccc3C(=O)N(CC(F)(F)F)[C@@H]2c2cccnc2)ccc1F [SJ733]
- Metabolite data: 1_3-Bisphosphoglyceric acid: 0
- Metabolite data: 2_3-Diphosphoglyceric acid: -1.405
- Metabolite data: 3-Phosphoglycerate: 0.1564
- Metabolite data: 4-Aminobutyrate: -0.6232
- Metabolite data: 4-Phosphopantothenate: -0.06384
- Metabolite data: 4-phosphopantetheine: 0
- Metabolite data: 5-aminopentanoic acid: 0
- Metabolite data: 5-phosphoribosyl-1-pyrophosphate: 0
- Metabolite data: 6-Phospho-D-Gluconate: -0.1307
- Metabolite data: ADP-D-Glucose: 0.2839
- Metabolite data: Acetyl-CoA: -0.6106
- Metabolite data: Acetyllysine: -2.328
- Metabolite data: Aconitate: 1.12
- Metabolite data: CDP: 0.04523
- Metabolite data: CDP-Ethanolamine: -0.09201
- Metabolite data: CDP-choline: 0
- Metabolite data: CMP: 1.401
- Metabolite data: CTP: -0.9536
- Metabolite data: Citrate/Isocitrate: 0.1284
- Metabolite data: Cyclic-AMP: -1.252
- Metabolite data: Dihydroorotate: -2.603
- Metabolite data: FAD: -1.458
- Metabolite data: FMN: -1.104
- Metabolite data: Fructose-1,6-Bisphosphate: -0.7765
- Metabolite data: Fumarate: 0.221
- Metabolite data: GDP: -2.218
- Metabolite data: GMP: -2.3136
- Metabolite data: GTP: -1.102
- Metabolite data: Glucose-1/6-Phosphate: -0.8546
- Metabolite data: Glutathione Disulfide: -0.003594
- Metabolite data: Hexose: 0
- Metabolite data: Hydroxyisocaproic acid: 0
- Metabolite data: Indole: 0.01538
- Metabolite data: Ketoleucine: 0
- Metabolite data: L-arginino-succinate: 0
- Metabolite data: Lactate: -1.557
- Metabolite data: Malate: 0.2276
- Metabolite data: Myo-Inositol: -4.078
- Metabolite data: N-Acetyl-Glutamate: -0.1913
- Metabolite data: N-Acetyl-L-Alanine: -1.649
- Metabolite data: N-Acetyl-L-Ornithine: -1.387
- Metabolite data: N-Carbamoyl-L-Aspartate: -4.081
- Metabolite data: NAD+: -0.3968
- Metabolite data: NADH: 0.5171
- Metabolite data: NADP+: -0.1788
- Metabolite data: NADPH: 3.012
- Metabolite data: Nicotinate: 0.6001
- Metabolite data: Octulose 8/1-Phosphate: -0.3837
- Metabolite data: Orotate: 0.7127
- Metabolite data: PD: -1.25
- Metabolite data: PE: -3.092
- Metabolite data: PEEK: -1.29
- Metabolite data: Phenol Red: 0
- Metabolite data: Pyroglutamic acid: -0.07146
- Metabolite data: S-Adenosyl-L-Homocysteine: -0.5514
- Metabolite data: S-methyl-5'-thioadenosine: -0.2796
- Metabolite data: SD: -3.659
- Metabolite data: Sedoheptulose Bisphosphate: -0.9288
- Metabolite data: UDP: -0.7526
- Metabolite data: UDP-D-Glucose: -0.1564
- Metabolite data: UDP-D-Glucuronate: -0.198
- Metabolite data: UDP-N-Acetyl-Glucosamine: 0.08301
- Metabolite data: UMP: -0.4316
- Metabolite data: UTP: -1.732
- Metabolite data: a-ketoglutarate: 0.4286
- Metabolite data: acetyl-aspartate: 0
- Metabolite data: arginine: 0
- Metabolite data: asparagine: 0
- Metabolite data: aspartate: 0
- Metabolite data: biotin: 0
- Metabolite data: chlorpropamide: 0
- Metabolite data: coenzyme A: 0
- Metabolite data: dAMP: 2.428
- Metabolite data: dATP: -0.7133
- Metabolite data: dCDP: 1.868
- Metabolite data: dCMP: 1.752
- Metabolite data: dCTP: 0.5805
- Metabolite data: dGDP/ADP: -2.35
- Metabolite data: dGMP/AMP: -1.067
- Metabolite data: dGTP/ATP: 0
- Metabolite data: dTDP: 2.593
- Metabolite data: dTMP: 4.089
- Metabolite data: dTTP: 1.546
- Metabolite data: folate: 0
- Metabolite data: glucono-lactone: 0
- Metabolite data: glutamate: 0
- Metabolite data: glutamine: 0
- Metabolite data: glutathione: 0
- Metabolite data: histidine: 0
- Metabolite data: hydroxyproline/Aminolevulinate: 0
- Metabolite data: isoleucine: 0
- Metabolite data: leucine: 0
- Metabolite data: maleic acid: 0
- Metabolite data: methionine: 0
- Metabolite data: nicotinamide mononucleotide: 0
- Metabolite data: orotidine-5'-phosphate: 0

Compound: CC1(C)N=C(N)N=C(N)N1OCCCOc1cc(Cl)c(Cl)cc1Cl [WR99210]
- Metabolite data: 1_3-Bisphosphoglyceric acid: 0
- Metabolite data: 2_3-Diphosphoglyceric acid: 0.15
- Metabolite data: 3-Phosphoglycerate: 0
- Metabolite data: 4-Aminobutyrate: 0.89
- Metabolite data: 4-Phosphopantothenate: 0.06
- Metabolite data: 4-phosphopantetheine: 0
- Metabolite data: 5-aminopentanoic acid: 0
- Metabolite data: 5-phosphoribosyl-1-pyrophosphate: 0
- Metabolite data: 6-Phospho-D-Gluconate: 0.03
- Metabolite data: ADP-D-Glucose: -0.24
- Metabolite data: Acetyl-CoA: 0.03
- Metabolite data: Acetyllysine: 0.3
- Metabolite data: Aconitate: -0.02
- Metabolite data: CDP: 0.18
- Metabolite data: CDP-Ethanolamine: 0.69
- Metabolite data: CDP-choline: 0
- Metabolite data: CMP: -0.07
- Metabolite data: CTP: -0.11
- Metabolite data: Citrate/Isocitrate: 0.01
- Metabolite data: Cyclic-AMP: 0
- Metabolite data: Dihydroorotate: 0.21
- Metabolite data: FAD: 0.03
- Metabolite data: FMN: -0.26
- Metabolite data: Fructose-1,6-Bisphosphate: 0
- Metabolite data: Fumarate: 0.11
- Metabolite data: GDP: 0.23
- Metabolite data: GMP: 0.07
- Metabolite data: GTP: -0.36
- Metabolite data: Glucose-1/6-Phosphate: -0.02
- Metabolite data: Glutathione Disulfide: 0.14
- Metabolite data: Hexose: 0
- Metabolite data: Hydroxyisocaproic acid: 0
- Metabolite data: Indole: 0.05
- Metabolite data: Ketoleucine: 0
- Metabolite data: L-arginino-succinate: 0
- Metabolite data: Lactate: 0.42
- Metabolite data: Malate: 0.06
- Metabolite data: Myo-Inositol: 0.64
- Metabolite data: N-Acetyl-Glutamate: 0.09
- Metabolite data: N-Acetyl-L-Alanine: 0.02
- Metabolite data: N-Acetyl-L-Ornithine: 0.2
- Metabolite data: N-Carbamoyl-L-Aspartate: 0.03
- Metabolite data: NAD+: 0.17
- Metabolite data: NADH: 3.14
- Metabolite data: NADP+: 0.03
- Metabolite data: NADPH: 0.5
- Metabolite data: Nicotinate: 0.23
- Metabolite data: Octulose 8/1-Phosphate: 0.08
- Metabolite data: Orotate: 0.09
- Metabolite data: PD: 0
- Metabolite data: PE: 0
- Metabolite data: PEEK: 0
- Metabolite data: Phenol Red: 0
- Metabolite data: Pyroglutamic acid: 0.03
- Metabolite data: S-Adenosyl-L-Homocysteine: 0
- Metabolite data: S-methyl-5'-thioadenosine: 0.14
- Metabolite data: SD: 0
- Metabolite data: Sedoheptulose Bisphosphate: 0.08
- Metabolite data: UDP: 0.22
- Metabolite data: UDP-D-Glucose: 0.05
- Metabolite data: UDP-D-Glucuronate: 0.01
- Metabolite data: UDP-N-Acetyl-Glucosamine: 0.06
- Metabolite data: UMP: 0
- Metabolite data: UTP: -0.42
- Metabolite data: a-ketoglutarate: 0.08
- Metabolite data: acetyl-aspartate: 0
- Metabolite data: arginine: 0
- Metabolite data: asparagine: 0
- Metabolite data: aspartate: 0
- Metabolite data: biotin: 0
- Metabolite data: chlorpropamide: 0
- Metabolite data: coenzyme A: 0
- Metabolite data: dAMP: -0.3
- Metabolite data: dATP: -0.89
- Metabolite data: dCDP: 0.46
- Metabolite data: dCMP: 0.32
- Metabolite data: dCTP: 0.42
- Metabolite data: dGDP/ADP: 0
- Metabolite data: dGMP/AMP: 0
- Metabolite data: dGTP/ATP: 0
- Metabolite data: dTDP: 0.16
- Metabolite data: dTMP: -0.05
- Metabolite data: dTTP: -0.28
- Metabolite data: folate: 0
- Metabolite data: glucono-lactone: 0
- Metabolite data: glutamate: 0
- Metabolite data: glutamine: 0
- Metabolite data: glutathione: 0
- Metabolite data: histidine: 0
- Metabolite data: hydroxyproline/Aminolevulinate: 0
- Metabolite data: isoleucine: 0
- Metabolite data: leucine: 0
- Metabolite data: maleic acid: 0
- Metabolite data: methionine: 0
- Metabolite data: nicotinamide mononucleotide: 0
- Metabolite data: orotidine-5'-phosphate: 0
